Patent publication US20160046618A1, “Cyclopropyl Fused Thiazin-2-Amine Compounds as Beta-Secretase Inhibitors and Methods of Use” (AMGEN INC., priority 2014, published 2016)
Where two headings read alike, the source gives them in different places.

What was measured:
[1] = target: human recombinant BACE1 (Homo sapiens (Human), UniProt P56817); test: In vitro enzymatic BACE1 FRET assay; format: biochemical; conditions: read-out: IC50 IP (μM) BACE1 enzyme
Outline: (§1)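 Protease purified by Ni-NTA chromatography; start with FRET substrate (50 nM); incubate 1 h; quench with Tris to neutral pH; read fluorescence ex 488 / em 590 nm.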

[2] = target: human recombinant BACE2 (Homo sapiens (Human), UniProt Q9Y5Z0); test: In vitro enzymatic BACE2 FRET assay; format: biochemical; conditions: read-out: IC50 IP (μM) BACE2 enzyme
Sequence of human recombinant BACE2 (Q9Y5Z0 63-518): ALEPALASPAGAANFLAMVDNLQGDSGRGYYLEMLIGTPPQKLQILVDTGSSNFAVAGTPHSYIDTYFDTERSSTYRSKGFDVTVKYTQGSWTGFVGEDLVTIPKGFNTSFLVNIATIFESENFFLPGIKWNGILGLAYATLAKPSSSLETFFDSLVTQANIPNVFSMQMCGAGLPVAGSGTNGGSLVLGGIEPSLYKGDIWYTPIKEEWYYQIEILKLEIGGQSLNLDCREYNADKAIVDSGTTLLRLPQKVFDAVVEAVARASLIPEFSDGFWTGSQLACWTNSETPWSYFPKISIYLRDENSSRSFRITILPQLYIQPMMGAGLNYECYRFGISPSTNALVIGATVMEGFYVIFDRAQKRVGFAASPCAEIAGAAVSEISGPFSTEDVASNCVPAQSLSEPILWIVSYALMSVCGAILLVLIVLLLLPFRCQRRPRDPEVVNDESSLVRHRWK
Outline: as §1

[3] = system: Aβ40 in conditioned medium of cells stably expressing Amyloid Precursor Protein (APP); test: In vitro BACE-1 cell-based assay (Aβ40 sandwich ELISA); conditions: read-out: IC50 IP (μM) BACE1 cell
Outline: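 APP-expressing cells treated 24 h at 37 °C with compound in 10-point dose response (top 100 μM or 10 μM, 0.1% DMSO final). Secreted Aβ40 in conditioned medium quantified by sandwich ELISA (pAb40 capture, biotinylated 6E10 detection, time-resolved europium fluorescence); IC50 from percent inhibition versus concentration.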

[4] = target: Recombinant Cat D (Homo sapiens (Human), UniProt P07339); test: In vitro enzymatic Cathepsin D (Cat D) FRET assay; format: biochemical; conditions: read-out: IC50 IP (μM) CatD
Sequence of Recombinant Cat D (P07339 65-412): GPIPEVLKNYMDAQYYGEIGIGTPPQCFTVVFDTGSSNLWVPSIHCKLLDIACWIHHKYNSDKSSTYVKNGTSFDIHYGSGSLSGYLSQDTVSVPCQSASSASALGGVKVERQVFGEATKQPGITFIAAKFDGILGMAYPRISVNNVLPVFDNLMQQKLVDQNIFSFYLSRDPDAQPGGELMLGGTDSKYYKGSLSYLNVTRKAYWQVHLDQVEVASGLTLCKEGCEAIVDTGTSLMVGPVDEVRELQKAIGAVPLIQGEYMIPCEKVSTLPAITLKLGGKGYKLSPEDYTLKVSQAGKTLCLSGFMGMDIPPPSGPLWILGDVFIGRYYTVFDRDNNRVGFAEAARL
Outline: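 CHO-expressed enzyme; buffer 0.05 M citrate pH 3.5, 5 mM CHAPS, 10% DMSO final. Start with FRET substrate 20 nM, 1 h incubation, Tris stop (pH to neutral), fluorescence ex 500 nm/em 580 nm.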

[5] = system: Aβ 40 in rat CSF; test: In vivo inhibition of beta-secretase: Aβ40 reduction in rat CSF; conditions: 10 mpk, after 4 h
Description: (§2) In Vivo Inhibition of Beta-Secretase
Several animal models, including mouse, rat, dog, and monkey, may be used to screen for inhibition of beta-secretase activity in vivo following administration of a test compound sample. Animals used in this invention can be wild type, transgenic, or gene knockout animals. For example, the Tg2576 mouse model, prepared and conducted as described in Hsiao et al., 1996, Science 274, 99-102, and other non-transgenic or gene knockout animals are useful to analyze in vivo inhibition of Amyloid beta peptide (Abeta) production in the presence of inhibitory test compounds. Generally, 2 to 18 month old Tg2576 mice, gene knockout mice or non-transgenic animals are administered test compounds formulated in vehicles, such as cyclodextran, phosphate buffers, hydroxypropyl methylcellulose or other suitable vehicles. One to twenty-four hours following the administration of compound, animals are sacrificed, and brains as well as cerebrospinal fluid (CSF) and plasma are removed for analysis of A-beta levels and drug or test compound concentrations (Dovey et al., 2001, Journal of Neurochemistry, 76,173-181) Beginning at time 0, animals are administered by oral gavage, or other means of delivery such as intravenous injection, an inhibitory test compound of up to 100 mg/kg in a standard, conventional formulation, such as 2% hydroxypropyl methylcellulose, 1% Tween80. A separate group of animals receive 2% hydroxypropyl methylcellulose, 1% Tween80 alone, containing no test compound, and serve as a vehicle-control group. At the end of the test period, animals are sacrificed and brain tissues, plasma or cerebrospinal fluid are collected. […] Homogenates are centrifuged at 355,000 g, 4° C. for 30 minutes. CSF or brain supernatants are then analyzed for the presence of A-beta peptide by specific sandwich ELISA assays based on ECL (Electrochemiluminescence) technology. For example, rat Abeta40 is measured using biotinylated-4G8 (Signet) as a capture antibody and Fab40 (an in-house antibody specific to the C-terminal of Abeta40) as a detection antibody. For example, 4 hours after administration of 30 mg/kg oral dose of the test compound in 2% hydroxypropyl methylcellulose, 1% Tween80 (pH2.2) to 200 g male Sprague Dawley rats, amyloid beta peptide levels are measured for reduction by X % and Y % in cerebrospinal fluid and brain, respectively, when compared to the levels measured in the vehicle-treated or control mice.
(§3) Actual vehicles used: Oral: 2% HPMC, 1% Tween80, pH 2.2
The compounds of the invention may be shown to reduce the formation and/or deposition of amyloid beta peptide in the cerebrospinal fluid (CSF) as well as in the brain of a mouse or rat at either 3 mpk, 10 mpk or 30 mpk (mpk=mg compound per kg weight of the animal) dosing concentrations after 4 h.

[6] = system: Aβ 40 in rat brain; test: In vivo inhibition of beta-secretase: Aβ40 reduction in rat brain; conditions: 10 mpk, after 4 h
Description: as §2
Several animal models, including mouse, rat, dog, and monkey, may be used to screen for inhibition of beta-secretase activity in vivo following administration of a test compound sample. Animals used in this invention can be wild type, transgenic, or gene knockout animals. […] One to twenty-four hours following the administration of compound, animals are sacrificed, and brains as well as cerebrospinal fluid (CSF) and plasma are removed for analysis of A-beta levels and drug or test compound concentrations (Dovey et al., 2001, Journal of Neurochemistry, 76,173-181) Beginning at time 0, animals are administered by oral gavage, or other means of delivery such as intravenous injection, an inhibitory test compound of up to 100 mg/kg in a standard, conventional formulation, such as 2% hydroxypropyl methylcellulose, 1% Tween80. A separate group of animals receive 2% hydroxypropyl methylcellulose, 1% Tween80 alone, containing no test compound, and serve as a vehicle-control group. At the end of the test period, animals are sacrificed and brain tissues, plasma or cerebrospinal fluid are collected. […] Homogenates are centrifuged at 355,000 g, 4° C. for 30 minutes. CSF or brain supernatants are then analyzed for the presence of A-beta peptide by specific sandwich ELISA assays based on ECL (Electrochemiluminescence) technology. For example, rat Abeta40 is measured using biotinylated-4G8 (Signet) as a capture antibody and Fab40 (an in-house antibody specific to the C-terminal of Abeta40) as a detection antibody.
as §3

Sequence of human recombinant BACE1 (P56817 46-501): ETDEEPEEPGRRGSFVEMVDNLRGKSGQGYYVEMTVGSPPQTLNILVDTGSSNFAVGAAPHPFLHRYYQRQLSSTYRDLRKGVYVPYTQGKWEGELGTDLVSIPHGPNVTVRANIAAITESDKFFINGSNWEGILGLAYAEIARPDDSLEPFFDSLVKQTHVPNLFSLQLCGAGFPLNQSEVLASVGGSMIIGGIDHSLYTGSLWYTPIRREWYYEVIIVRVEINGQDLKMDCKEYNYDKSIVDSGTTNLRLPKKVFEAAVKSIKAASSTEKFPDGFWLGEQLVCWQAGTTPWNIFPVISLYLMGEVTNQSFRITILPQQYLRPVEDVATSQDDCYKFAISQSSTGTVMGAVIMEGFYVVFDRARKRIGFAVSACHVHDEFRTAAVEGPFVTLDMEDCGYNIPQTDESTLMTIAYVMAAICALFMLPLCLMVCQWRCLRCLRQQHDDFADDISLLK

Row | Compound | IC50 [1] [µM] | IC50 [2] [µM] | IC50 [3] [µM] | IC50 [4] [µM] | IC50 ([2]; BACE2 FRET enzyme assay) [µM] | IC50 ([3]; BACE1 cell-based assay) [µM] | IC50 ([4]; Cathepsin D FRET enzyme assay) [µM] | % Aβ 40 reduction in rat CSF at 10 mpk [5] [%] | % Aβ 40 reduction in rat brain at 10 mpk [6] [%]
1 | C#CCOc1cnc2c(Nc3ccc(F)c([C@@]4(CF)N=C(N)S[C@H]5C[C@H]54)c3)ncnc2c1 [Example 941, N-(3-((1S,5S,6S)-3-amino-5-(fluoromethyl)-2-thia-4-azabicyclo[4.1.0]hept-3-en-5-yl)-4-fluorophenyl)-7 (2-propyn-1-yloxy)pyrido[3,2-d]pyrimidin-4-amine] | 0.00962 | 0.2 | 0.0129 | 780 |  |  |  | 41 | 2
2 | C#CCOc1cnc2c(Nc3cc(F)c(F)c([C@@]4(C)N=C(N)S[C@@]5(C#N)C[C@H]54)c3)ncnc2c1 [Example 921, (1S,5S,6S)-3-amino-5-(2,3-difluoro-5-((7-(2-propyn-1-yloxy)pyrido[3,2-d]pyrimidin-4-yl)amino)phenyl)-5-methyl-2-thia-4-azabicyclo[4.1.0]hept-3-ene-1-carbonitrile] | 0.00198 | 0.0627 | 0.0206 | 172 |  |  |  | 70 | 64
3 | COC[C@]12C[C@H]1[C@@](C)(c1cc(Nc3nccc4nc(OCc5cocn5)cnc34)cc(F)c1F)N=C(N)S2 [Example 628, N-(3-((1S,5S,6S)-3-amino-1-(methoxymethyl)-5-methyl-2-thia-4-azabicyclo[4.1.0]hept-3-en-5-yl)-4,5-difluorophenyl)-2-(1,3-oxazol-4-ylmethoxy)pyrido[3,4-b]pyrazin-5-amine] | 0.00324 | 0.0383 | 0.0148 | 443 |  |  |  | 59 | 50
4 | Cc1cc(OCC(F)(F)F)cnc1C(=O)Nc1cc(F)c(F)c([C@@]2(C)N=C(N)S[C@@]3(C(F)F)C[C@@H]23)c1 [Example 679, N-(3-((1S,5S,6S)-3-amino-1-(difluoromethyl)-5-methyl-2-thia-4-azabicyclo[4.1.0]hept-3-en-5-yl)-4,5-difluorophenyl)-3-methyl-5-(2,2,2-trifluoroethoxy)-2-pyridinecarboxamide] | 0.00435 | 0.746 | 0.0495 | 375 |  |  |  | 20 | 6
5 | COC[C@]12C[C@H]1[C@@](C)(c1cc(Nc3nccc4cc(OCc5ncco5)cnc34)cc(F)c1F)N=C(N)S2 [Example 727, N-(3-((1S,5S,6S)-3-amino-1-(methoxymethyl)-5-methyl-2-thia-4-azabicyclo[4.1.0]hept-3-en-5-yl)-4,5-difluorophenyl)-3-(1,3-oxazol-2-ylmethoxy)-1,7-naphthyridin-8-amine] | 0.00798 | 0.359 | 0.00962 | 779 |  |  |  | 38 | 18
6 | C[C@]1(c2cc(Nc3ncnc4cc(C#N)cnc34)cc(F)c2F)N=C(N)S[C@H]2C[C@H]21 [Example 36, 4-((3-((1S,5S,6S)-3-amino-5-methyl-2-thia-4-azabicyclo[4.1.0]hept-3-en-5-yl)-4,5-difluorophenyl)amino)pyrido[3,2-d]pyrimidine-7-carbonitrile] |  |  |  |  | 0.0562 | 0.00767 | 250 | 74 | 46

Further lines, with some results ahead:

Row | IC50 [1] [µM] | IC50 [2] [µM] | IC50 [3] [µM] | IC50 [4] [µM] | IC50 ([2]; BACE2 FRET enzyme assay) [µM] | IC50 ([3]; BACE1 cell-based assay) [µM] | IC50 ([4]; Cathepsin D FRET enzyme assay) [µM] | Compound | % Aβ 40 reduction in rat CSF at 10 mpk [5] [%] | % Aβ 40 reduction in rat brain at 10 mpk [6] [%]
7 | 0.000249 | < 0.00203 | 0.00138 | 17.8 |  |  |  | C#CCOc1cnc(C(=O)Nc2cc(F)c(F)c([C@@]3(C)N=C(N)S[C@@]4(C#N)C[C@H]43)c2)cn1 [Example 924, N-(3-((1S,5S,6S)-3-amino-1-cyano-5-methyl-2-thia-4-azabicyclo[4.1.0]hept-3-en-5-yl)-4,5-difluorophenyl)-5-(2-propyn-1-yloxy)-2-pyrazinecarboxamide] | 84 | 76
8 | 0.00114 | 0.0449 | 0.0216 | 598 |  |  |  | C#CCOc1cnc2c(Nc3cc(F)c(F)c([C@@]4(CF)N=C(N)S[C@H]5C[C@H]54)c3)nccc2n1 [Example 841, N-(3-((1S,5S,6S)-3-amino-5-(fluoromethyl)-2-thia-4-azabicyclo[4.1.0]hept-3-en-5-yl)-4,5-difluorophenyl)-2-(2-propyn-1-yloxy)pyrido[3,4-b]pyrazin-5-amine] | 58 | 44
9 | 0.000782 | 0.0516 | 0.00904 | 476 |  |  |  | C#CCOc1cnc2c(Nc3ccc(F)c([C@@]4(C)N=C(N)S[C@]5(C(C)(C)O)[C@H]4C5(F)F)c3)nccc2n1 [Example 712, 2-((1S,5S,6R)-3-amino-7,7-difluoro-5-(2-fluoro-5-((2-(2-propyn-1-yloxy)pyrido[3,4-b]pyrazin-5-yl)amino)phenyl)-5-methyl-2-thia-4-azabicyclo[4.1.0]hept-3-en-1-yl)-2-propanol] | 52 | 32
10 | 0.000941 | 0.171 | 0.00251 | 725 |  |  |  | Cc1noc(COc2cnc(C(=O)Nc3ccc(F)c([C@@]4(C)N=C(N)S[C@@]5(C(F)F)C[C@@H]45)c3)cn2)n1 [Example 1039, N-(3-((1S,5S,6S)-3-amino-1-(difluoromethyl)-5-methyl-2-thia-4-azabicyclo[4.1.0]hept-3-en-5-yl)-4-fluorophenyl)-5-((3-methyl-1,2,4-oxadiazol-5-yl)metnoxy)-2-pyrazinecarboxamide] | 13 | 16
11 | 0.00173 | 0.055 | 0.00325 | 475 |  |  |  | COC[C@]12C[C@H]1[C@@](C)(c1cc(Nc3nccc4nc(OCc5ncco5)cnc34)cc(F)c1F)N=C(N)S2 [Example 631, N-(3-((1S,5S,6S)-3-amino-1-(methoxymethyl)-5-methyl-2-thia-4-azabicyclo[4.1.0]hept-3-en-5-yl)-4,5-difluorophenyl)-2-(1,3-oxazol-2-ylmethoxy)pyrido[3,4-b]pyrazin-5-amine] | 52 | 47
